Results as given in the supplement of paper PMC11451515.

Tests used:
Settings in all cases: 48 h
[1] = test system: NOMO1; test: cell viability relative to DMSO control; higher = less cytotoxic
In short: (§1)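 Leukemia cells (NOMO1 or SEM, 500 cells/well; P12-Ichikawa, 1000 cells/well) were seeded in 5 μl in 1536-well plates after at least four passages of adaptation to each medium. They received library compounds in DMSO by pin dosing, 11 threefold points from 47 μM to 0.79 nM. Luminescence with CellTiter-Glo One was read after 48 h at 37°C. Viability is stated per plate relative to DMSO wells, with cell-free wells as background.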

[2] = test system: P12-Ichikawa; test: as above
In short: as §1

[3] = test system: SEM cells; test: as above
In short: as §1

[4] = test system: NOMO1; test: AUC of viability dose-response curve (% viability x log10 dose units); higher = less sensitive
In short: (§2)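 Over 48 h at 37°C, leukemia cells in 1536-well plates (500 or 1000 cells/well), adapted to each medium, received library compounds in DMSO at 11 threefold doses from 47 μM to 0.79 nM. CellTiter-Glo One luminescence, normalised per plate to DMSO and cell-free wells, was fitted by a four-parameter log-logistic function of log10 dose. The area under the curve was then integrated by trapezoidal rule, after scaling curves above full viability and removing those that failed quality control.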

[5] = test system: P12-Ichikawa; test: as above
In short: as §2

[6] = test system: SEM cells; test: as above
In short: as §2

O=C(/C=C/c1ccc(O)cc1)c1ccc(O)cc1O
cell viability [%]
Settings | [1] | [2] | [3]
HPLM + 10% dialyzed FBS, 0.000781 µM | 138 | 108 | 113
HPLM + 10% dialyzed FBS, 0.00234 µM | 116 | 98.4 | 112
HPLM + 10% dialyzed FBS, 0.00702 µM | 117 | 95 | 131
HPLM + 10% dialyzed FBS, 0.0211 µM | 110 | 109 | 108
HPLM + 10% dialyzed FBS, 0.0632 µM | 104 | 106 | 141
HPLM + 10% dialyzed FBS, 0.19 µM | 126 | 104 | 131
HPLM + 10% dialyzed FBS, 0.569 µM | 128 | 103 | 120
HPLM + 10% dialyzed FBS, 1.71 µM | 97.2 | 95.9 | 109
HPLM + 10% dialyzed FBS, 5.12 µM | 106 | 99.6 | 124
HPLM + 10% dialyzed FBS, 15.4 µM | 82.4 | 87.8 | 81.2
HPLM + 10% dialyzed FBS, 46.1 µM | 46.8 | 43.1 | 26.6
RPMI 5 mM glucose + 10% FBS, 0.000781 µM | 112 | 108 | 118
RPMI 5 mM glucose + 10% FBS, 0.00234 µM | 105 | 103 | 122
RPMI 5 mM glucose + 10% FBS, 0.00702 µM | 101 | 110 | 134
RPMI 5 mM glucose + 10% FBS, 0.0211 µM | 109 | 105 | 125
RPMI 5 mM glucose + 10% FBS, 0.0632 µM | 113 | 111 | 124
RPMI 5 mM glucose + 10% FBS, 0.19 µM | 110 | 108 | 133
RPMI 5 mM glucose + 10% FBS, 0.569 µM | 119 | 98.3 | 106
RPMI 5 mM glucose + 10% FBS, 1.71 µM | 98.8 | 98.5 | 116
RPMI 5 mM glucose + 10% FBS, 5.12 µM | 103 | 107 | 111
RPMI 5 mM glucose + 10% FBS, 15.4 µM | 96.1 | 65.9 | 79.6
RPMI 5 mM glucose + 10% FBS, 46.1 µM | 86.6 | 11.7 | 17
RPMI 5 mM glucose + 10% dialyzed FBS, 0.000781 µM | 120 | 105 | 98
RPMI 5 mM glucose + 10% dialyzed FBS, 0.00234 µM | 103 | 101 | 94.4
RPMI 5 mM glucose + 10% dialyzed FBS, 0.00702 µM | 109 | 109 | 118
RPMI 5 mM glucose + 10% dialyzed FBS, 0.0211 µM | 106 | 106 | 91.9
RPMI 5 mM glucose + 10% dialyzed FBS, 0.0632 µM | 107 | 119 | 121
RPMI 5 mM glucose + 10% dialyzed FBS, 0.19 µM | 110 | 113 | 105
RPMI 5 mM glucose + 10% dialyzed FBS, 0.569 µM | 110 | 104 | 100
RPMI 5 mM glucose + 10% dialyzed FBS, 1.71 µM | 88.4 | 97.3 | 91
RPMI 5 mM glucose + 10% dialyzed FBS, 5.12 µM | 102 | 95.5 | 81.8
RPMI 5 mM glucose + 10% dialyzed FBS, 15.4 µM | 109 | 41.8 | 59.5
RPMI 5 mM glucose + 10% dialyzed FBS, 46.1 µM | 70.2 | 9.51 | 9.38

AUC of viability dose-response curve
Settings | [4] | [5] | [6]
HPLM + 10% dialyzed FBS | 437 | 454 | 443
RPMI 5 mM glucose + 10% FBS | 460 | 438 | 433
RPMI 5 mM glucose + 10% dialyzed FBS | 452 | 420 | 417

CCNC(=O)Nc1ccc2ncc(Nc3ccc(C)cc3)nc2n1
cell viability [%], [3]
Settings | HPLM + 10% dialyzed FBS | RPMI 5 mM glucose + 10% FBS
0.000781 µM | 129 | 119
0.00234 µM | 120 | 139
0.00702 µM | 115 | 117
0.0211 µM | 113 | 119
0.0632 µM | 118 | 124
0.19 µM | 109 | 98.3
0.569 µM | 113 | 124
1.71 µM | 108 | 114
5.12 µM | 110 | 93.3
15.4 µM | 68.1 | 59.3
46.1 µM | 34.8 | 21.2

AUC of viability dose-response curve
Settings | [4] | [5] | [6]
HPLM + 10% dialyzed FBS | 430 | 459 | 437
RPMI 5 mM glucose + 10% FBS | 453 | 465 | 418
RPMI 5 mM glucose + 10% dialyzed FBS | 452 | 464 | 402

C[C@]12CCC\3=C\4CCC(=O)\C=C4CC[C@H]3[C@@H]1CC[C@@]2(O)CC#N
cell viability [%]
Settings | [1] | [3]
HPLM + 10% dialyzed FBS, 0.000781 µM | 123 | 97.2
HPLM + 10% dialyzed FBS, 0.00234 µM | 123 | 103
HPLM + 10% dialyzed FBS, 0.00702 µM | 138 | 123
HPLM + 10% dialyzed FBS, 0.0211 µM | 144 | 97
HPLM + 10% dialyzed FBS, 0.0632 µM | 143 | 124
HPLM + 10% dialyzed FBS, 0.19 µM | 139 | 118
HPLM + 10% dialyzed FBS, 0.569 µM | 138 | 121
HPLM + 10% dialyzed FBS, 1.71 µM | 125 | 144
HPLM + 10% dialyzed FBS, 5.12 µM | 158 | 137
HPLM + 10% dialyzed FBS, 15.4 µM | 137 | 132
HPLM + 10% dialyzed FBS, 46.1 µM | 168 | 115
RPMI 5 mM glucose + 10% FBS, 0.000781 µM | – | 117
RPMI 5 mM glucose + 10% FBS, 0.00234 µM | – | 124
RPMI 5 mM glucose + 10% FBS, 0.00702 µM | – | 116
RPMI 5 mM glucose + 10% FBS, 0.0211 µM | – | 88.3
RPMI 5 mM glucose + 10% FBS, 0.0632 µM | – | 143
RPMI 5 mM glucose + 10% FBS, 0.19 µM | – | 116
RPMI 5 mM glucose + 10% FBS, 0.569 µM | – | 138
RPMI 5 mM glucose + 10% FBS, 1.71 µM | – | 130
RPMI 5 mM glucose + 10% FBS, 5.12 µM | – | 146
RPMI 5 mM glucose + 10% FBS, 15.4 µM | – | 139
RPMI 5 mM glucose + 10% FBS, 46.1 µM | – | 128

AUC of viability dose-response curve
Settings | [4] | [5] | [6]
HPLM + 10% dialyzed FBS | 436 | 473 | 437
RPMI 5 mM glucose + 10% FBS | 468 | 466 | 445
RPMI 5 mM glucose + 10% dialyzed FBS | 454 | 468 | 451

CNC(=O)N1\N=C(\C2=CC=C(N)C=C2)C3=CC4=C(OCO4)C=C3CC1C (configuration not stated)
cell viability [%], [3]
Settings | HPLM + 10% dialyzed FBS | RPMI 5 mM glucose + 10% FBS
0.000781 µM | 111 | 120
0.00234 µM | 113 | 134
0.00702 µM | 130 | 124
0.0211 µM | 121 | 145
0.0632 µM | 142 | 138
0.19 µM | 133 | 134
0.569 µM | 122 | 132
1.71 µM | 129 | 129
5.12 µM | 98.3 | 79.9
15.4 µM | 43.8 | 47.1
46.1 µM | 8.25 | 8.13

AUC of viability dose-response curve
Settings | [4] | [5] | [6]
HPLM + 10% dialyzed FBS | 440 | 449 | 413
RPMI 5 mM glucose + 10% FBS | 451 | 447 | 400
RPMI 5 mM glucose + 10% dialyzed FBS | 449 | 449 | 392
